# Data reported in patent US20220152188A1, “TLR4-TLR7 LIGAND FORMULATIONS AS VACCINE ADJUVANTS” (The Regents of the University of California, priority 2019, published 2022).
# “Also recorded” adds a separate entry of the source.
# Assays:
# murine primary cells = assay: In vitro immunoactivity / agonistic potency in murine cells; assay type: cell-based, mouse
# [1] = test system: THP-1 cells and human primary cells; assay: In vitro immunoactivity / agonistic potency in human cells; assay type: cell-based; conditions: THP-1 and human primary cells
# [2] = test system: inactivated Influenza A virus [A/California/04/2009 (H1N1) pdm09]; assay: Antigen-specific antibody production in mice immunized with IIAV plus adjuvant (ELISA); assay type: in vivo, BALB/c mice; conditions: for total IgG levels: liposomal formulation
# TLR4 [3] = target: T1, TLR4 (Homo sapiens, UniProt O00206+Q9Y6Y9); assay type: cell-based
# Target sequence in this assay (O00206 24-839): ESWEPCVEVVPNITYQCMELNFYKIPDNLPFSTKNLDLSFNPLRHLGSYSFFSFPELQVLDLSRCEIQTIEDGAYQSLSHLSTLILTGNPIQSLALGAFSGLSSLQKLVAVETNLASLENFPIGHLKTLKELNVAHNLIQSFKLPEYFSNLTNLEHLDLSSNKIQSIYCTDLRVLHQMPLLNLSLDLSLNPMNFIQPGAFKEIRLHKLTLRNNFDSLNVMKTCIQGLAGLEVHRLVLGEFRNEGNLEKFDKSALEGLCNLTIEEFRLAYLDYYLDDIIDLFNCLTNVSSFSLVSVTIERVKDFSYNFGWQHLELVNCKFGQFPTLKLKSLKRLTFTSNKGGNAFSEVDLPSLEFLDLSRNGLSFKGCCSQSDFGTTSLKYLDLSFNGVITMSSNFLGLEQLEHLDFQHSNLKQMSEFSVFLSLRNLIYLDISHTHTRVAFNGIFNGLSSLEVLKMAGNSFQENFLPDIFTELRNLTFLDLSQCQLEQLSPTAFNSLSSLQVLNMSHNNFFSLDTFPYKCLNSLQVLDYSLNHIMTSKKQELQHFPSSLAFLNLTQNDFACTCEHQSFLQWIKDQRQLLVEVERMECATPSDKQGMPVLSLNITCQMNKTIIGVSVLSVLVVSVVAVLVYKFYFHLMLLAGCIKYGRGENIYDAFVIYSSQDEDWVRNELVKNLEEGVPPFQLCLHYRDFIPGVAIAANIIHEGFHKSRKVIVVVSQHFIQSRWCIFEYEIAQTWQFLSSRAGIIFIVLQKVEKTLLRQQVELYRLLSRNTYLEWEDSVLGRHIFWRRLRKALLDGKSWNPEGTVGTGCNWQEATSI
# Target sequence in this assay (Q9Y6Y9 17-160): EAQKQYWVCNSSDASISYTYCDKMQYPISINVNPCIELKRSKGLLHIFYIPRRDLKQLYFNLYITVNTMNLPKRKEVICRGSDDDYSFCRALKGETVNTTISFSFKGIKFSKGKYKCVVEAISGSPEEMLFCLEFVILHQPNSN
# mouse TLR4 = mouse TLR4 (Mus musculus, UniProt Q9JHF9+Q9QUK6); assay type: cell-based
# IGH genes, TCRα and TCRβ = assay: NGS assay for BCR and TCR repertoire of inguinal lymph nodes; assay type: in vivo, BALB/c mice; conditions: day 28
# ovalbumin = assay: In vivo vaccination study with model antigen ovalbumin; conditions: ovalbumin as antigen
# influenza virus = assay: Immunization with low dose recombinant hemagglutinin (rHA) and lethal virus challenge; assay type: in vivo, mice; conditions: rHA 0.2 μg/injection
# Protocol: To assess profile of protective immune responses against influenza virus infection induced by TLR4/TLR7 agonist-combined adjuvant, mice were immunized with low dose (0.2 μg/injection) recombinant hemagglutinin (rHA) and humoral responses and protection against lethal virus challenge (FIGS. 34A-2D).
# IL-6 = assay: IL-6, mouse (Tables 1-3); assay type: cell-based; conditions: Compound 1 = 100
# IP-10 = assay: IP-10, mouse (Tables 1-3); assay type: cell-based; conditions: Compound 1 = 100
# TLR4 [4] = target: T2, TLR4 (Mus musculus, UniProt Q9JHF9+Q9QUK6); assay: TLR4, mouse (Tables 1-3); assay type: cell-based; conditions: Compound 1 = 100
# T2 sequence (Q9QUK6 26-835): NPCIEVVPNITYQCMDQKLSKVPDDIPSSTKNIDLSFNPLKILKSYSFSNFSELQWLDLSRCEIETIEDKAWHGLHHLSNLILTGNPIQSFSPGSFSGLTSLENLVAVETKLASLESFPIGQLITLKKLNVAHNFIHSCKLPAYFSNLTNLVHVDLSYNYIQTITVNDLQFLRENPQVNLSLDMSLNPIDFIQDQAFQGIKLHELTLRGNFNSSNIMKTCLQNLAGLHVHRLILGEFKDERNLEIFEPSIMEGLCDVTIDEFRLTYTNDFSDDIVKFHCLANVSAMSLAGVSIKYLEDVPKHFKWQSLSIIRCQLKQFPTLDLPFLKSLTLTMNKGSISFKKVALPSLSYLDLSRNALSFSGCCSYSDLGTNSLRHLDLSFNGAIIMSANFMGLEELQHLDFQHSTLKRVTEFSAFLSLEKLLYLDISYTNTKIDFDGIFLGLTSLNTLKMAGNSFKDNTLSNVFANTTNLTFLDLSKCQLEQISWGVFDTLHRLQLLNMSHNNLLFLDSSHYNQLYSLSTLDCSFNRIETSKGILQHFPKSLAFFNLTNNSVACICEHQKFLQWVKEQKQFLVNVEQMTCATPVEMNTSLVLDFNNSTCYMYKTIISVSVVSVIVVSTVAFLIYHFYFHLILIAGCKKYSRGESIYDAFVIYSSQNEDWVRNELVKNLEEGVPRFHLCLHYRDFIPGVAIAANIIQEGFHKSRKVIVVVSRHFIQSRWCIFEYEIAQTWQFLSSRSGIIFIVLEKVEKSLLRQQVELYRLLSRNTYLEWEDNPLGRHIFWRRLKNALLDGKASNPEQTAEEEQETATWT
# T2 sequence (Q9JHF9 19-160): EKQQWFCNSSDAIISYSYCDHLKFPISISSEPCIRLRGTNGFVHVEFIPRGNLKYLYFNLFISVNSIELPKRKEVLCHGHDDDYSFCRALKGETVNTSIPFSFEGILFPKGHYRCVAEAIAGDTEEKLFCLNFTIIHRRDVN
# IL-8 = assay: IL-8, human (Tables 1-3); assay type: cell-based; conditions: Compound 1 = 100
# TLR4 [5] = target: T1, TLR4; assay: TLR4, human (Tables 1-3); assay type: cell-based; conditions: Compound 1 = 100
# Target sequence in this assay (O00206 24-839): as the sequence (O00206 24-839) above
# Target sequence in this assay (Q9Y6Y9 17-160 limits assumed): as the sequence (Q9Y6Y9 17-160) above
# [6] = TLR4 agonist combined with 1V270, DMSO-water formulation, sera day 28
# [7] = single adjuvant, DMSO formulation, i.m. days 0 and 21, sera day 28
# [8] = single adjuvant, DMSO formulation, sera day 28
# [9] = Table 1, R^3 series, footnotes not given
structure (smiles),measurement,setting,value
Cn1c2ccccc2c2nc(SCC(=O)NC3CCCCC3)n(-c3ccccc3)c(=O)c21 [Compound 1Z105],immunoactivity / agonistic potency in murine cells,murine primary cells,good immunoactivity in murine cells
same,immunoactivity / agonistic potency in human cells,[1],devoid of significant activity in human cells
same,anti-HA and anti-NA IgG2a,[2]; [6],failed in most cases; also recorded: failed to enhance IgG2a production induced by 1V270
same,anti-HA and anti-NA IgG1,[2]; [7],significantly higher levels of IgG1 against HA and NA
Cn1c2ccc(-c3ccco3)cc2c2nc(SCC(=O)NC3CCCCC3)n(-c3ccccc3)c(=O)c21 [Compound 2B182C],EC50 in human TLR4 reporter cells in comparison with EC50 of 1Z105,TLR4 [3],870 fold
same,EC50 in murine TLR4 reporter cells in comparison with EC50 of 1Z105,mouse TLR4,5.8 fold
same,immunoactivity / agonistic potency in murine cells,murine primary cells,higher agonistic potency than 1Z105
same,immunoactivity / agonistic potency in human cells,[1],higher agonistic potency than 1Z105
same,anti-HA and anti-NA IgG1,[2]; [6],significantly higher IgG1 compared to 1Z105
same,anti-HA and anti-NA IgG2a,[2]; [6],increased the levels of anti HA- and anti NA-Abs
same,total IgG levels,[2]; sera day 28,comparable
same,anti-HA and anti-NA IgG1,[2]; [7],significantly higher levels of IgG1 against HA and NA; also recorded: significantly increased IgG1 antibody against both HA and NA
same,anti-HA and anti-NA IgG1,"[2]; single adjuvant, DMSO formulation, i.m. days 0 and 21, sera day 28, listed as 2B182c",higher level of antigen specific IgG1
same,anti-NA IgG2a,[2]; [8],enhanced anti-NA Abs; also recorded: enhanced anti-NA specific IgG2a
same,antigen specific IgM,[2]; [8],only slightly increased
same,anti-NA IgG2a,"[2]; single adjuvant, DMSO formulation, sera day 28, listed as 2B182c",higher level of antigen specific IgG1 and anti-NA IgG2a
same,TCR clonality (TCRα and TCRβ),"IGH genes, TCRα and TCRβ",increased
same,serum IgG1 levels,ovalbumin,induced higher serum IgG1 levels
same,antigen-specific IgG2a,ovalbumin; with 1V270,additively enhance the release of antigen-specific IgG2a induced by 1V270
CCCCCCCCC=CCCCCCCCC(=O)OCC(COP(=O)(O)OCCNC(=O)c1ccc(Cn2c(=O)[nH]c3c(N)nc(OCCOC)nc32)cc1)OC(=O)CCCCCCCC=CCCCCCCCC (centres unmarked) [Compound 1V270],IgG2a:IgG1 ratio (Th1/Th2 immune balance),"[2]; DMSO-water formulation, individual animals",significantly shifted the Th2-biased immune responses by 1Z105 or 2B182C
same,total IgG levels,[2]; sera day 28,comparable
same,anti-HA IgG2a,[2]; [8],significantly increased anti-HA; also recorded: induced only anti-HA IgG2a production
same,Th1/Th2 bias of immune response,influenza virus,induced Th1 biased immune responses
O=C(CSc1nc2c([nH]c3ccccc32)c(=O)n1-c1ccccc1)NC1CCCCC1 [Compound 1],mouse IL-6,IL-6; [9],100
same,mouse IL-6,"IL-6; Table 2, R^2 series",100
same,mouse IL-6,"IL-6; Table 3, R^1 series",100
same,mouse IP-10,"IP-10; Table 1, R^3 series",100
same,mouse IP-10,"IP-10; Table 2, R^2 series",100
same,mouse IP-10,"IP-10; Table 3, R^1 series",100
same,mouse TLR4,"TLR4 [4]; Table 1, R^3 series",100
same,mouse TLR4,"TLR4 [4]; Table 2, R^2 series",100
same,mouse TLR4,"TLR4 [4]; Table 3, R^1 series",100
same,human IL-8,"IL-8; Table 1, R^3 series",100
same,human IL-8,"IL-8; Table 2, R^2 series",100
same,human IL-8,"IL-8; Table 3, R^1 series",100
same,human TLR4,"TLR4 [5]; Table 1, R^3 series",100
same,human TLR4,"TLR4 [5]; Table 2, R^2 series",100
same,human TLR4,"TLR4 [5]; Table 3, R^1 series",100
O=C(CSc1nc2c([nH]c3ccccc32)c(=O)n1-c1ccccc1)NC1CCCCCC1 [Compound 9],mouse IL-6,"IL-6; Table 2, R^2 series",126
same,mouse IP-10,"IP-10; Table 2, R^2 series",107
same,mouse TLR4,"TLR4 [4]; Table 2, R^2 series",99
same,human IL-8,"IL-8; Table 2, R^2 series",118
same,human TLR4,"TLR4 [5]; Table 2, R^2 series",100
CCCCCn1c2ccccc2c2nc(SCC(=O)NC3CCCCC3)n(-c3ccccc3)c(=O)c21 [Compound 49],mouse IL-6,IL-6; [9],5
same,mouse IP-10,"IP-10; Table 1, R^3 series",<1
same,mouse TLR4,"TLR4 [4]; Table 1, R^3 series",6
same,human IL-8,"IL-8; Table 1, R^3 series",1
same,human TLR4,"TLR4 [5]; Table 1, R^3 series",11
Cn1c2ccccc2c2nc(SCC(=O)NC3CCCCC3)n(-c3ccccc3)c(=O)c21 [Compound 42],mouse IL-6,IL-6; [9],101
same,mouse IP-10,"IP-10; Table 1, R^3 series",99
same,mouse TLR4,"TLR4 [4]; Table 1, R^3 series",100
same,human IL-8,"IL-8; Table 1, R^3 series",79
same,human TLR4,"TLR4 [5]; Table 1, R^3 series",92
